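How tested: cells in 96-well plates exposed to compound for 48 hours at five concentrations. GI50 marks 50% less growth.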 Calls of active or inactive are those of the source. Cut-off read from the data, not from the text of the source: active = GI50 up to about 1.1 µM and inactive = higher.
Experiments:
Test in all cases: NCI anticancer screen, dose series, 48 h
M14 = test system: M14
SNB-19 = test system: SNB-19
EKVX = test system: EKVX
K562 = test system: K562
HOP-62 = test system: HOP-62
SF-539 = test system: SF-539
A498 = test system: A498
HL-60 = test system: HL-60
HT-29 = test system: HT-29
TK-10 = test system: TK-10
NCI-H460 = test system: NCI-H460
MCF7 = test system: MCF7
Malme-3M = test system: Malme-3M
CAKI-1 = test system: CAKI-1
786-0 = test system: 786-0
SK-OV-3 = test system: SK-OV-3
MDA-N = test system: MDA-N
CCRF-CEM = test system: CCRF-CEM
UACC-62 = test system: UACC-62
IGROV-1 = test system: IGROV-1

Measured: GI50

N#Cc1nc(C2CCC(=O)O2)oc1N (stereo not given)
inactive: M14 > 100 µM | SNB-19 > 100 µM | EKVX > 100 µM | K562 > 100 µM | HOP-62 > 100 µM | SF-539 > 100 µM | A498 > 100 µM | HL-60 > 100 µM | HT-29 > 100 µM | TK-10 > 100 µM | NCI-H460 > 100 µM | MCF7 > 100 µM | Malme-3M 13.4 µM | CAKI-1 > 100 µM | 786-0 > 100 µM | SK-OV-3 > 100 µM | MDA-N > 100 µM | CCRF-CEM > 100 µM | UACC-62 > 100 µM | IGROV-1 > 100 µM

CCN1CCC(O)(/C=C/c2ccc(C)cc2C)C(C(=O)/C=C/c2ccc(C)cc2C)C1 (stereo not given)
inactive: M14 3.55 µM | SNB-19 4.03 µM | EKVX 2.74 µM | K562 3.13 µM | HOP-62 2.89 µM | SF-539 1.92 µM | A498 9.59 µM | HL-60 3.35 µM | HT-29 2.16 µM | TK-10 1.64 µM | NCI-H460 1.35 µM | MCF7 2.69 µM | Malme-3M 5.82 µM | CAKI-1 5.09 µM | 786-0 1.71 µM | SK-OV-3 9.57 µM | MDA-N 2.2 µM | CCRF-CEM 1.82 µM | UACC-62 3.41 µM | IGROV-1 2.89 µM

Cc1ccc(-c2cc(-c3ccc(Cl)cc3)nc(/N=C3\C(=O)N(CN4CCOCC4)c4ccc(Cl)cc43)n2)cc1
inactive: M14 26.4 µM | SNB-19 34.8 µM | EKVX 15.2 µM | K562 10.5 µM | HOP-62 20.3 µM | SF-539 23 µM | A498 20.5 µM | HL-60 11.6 µM | HT-29 16.3 µM | TK-10 26.4 µM | NCI-H460 20.9 µM | MCF7 17.5 µM | Malme-3M > 100 µM | CAKI-1 23 µM | 786-0 22 µM | SK-OV-3 35.6 µM | MDA-N 32.6 µM | CCRF-CEM 20.4 µM | UACC-62 19.8 µM | IGROV-1 13 µM

C[C@H]1CCC/C=C/[C@@H]2C[C@H](OC3OC(CO)C(O)C(O)C3O)C[C@H]2[C@H](O)/C=C/C(=O)O1 (stereo not given in full)
inactive: M14 46.9 µM | SNB-19 > 100 µM | EKVX > 100 µM | K562 > 100 µM | HOP-62 > 100 µM | SF-539 32.1 µM | A498 25.5 µM | HL-60 > 100 µM | HT-29 33.2 µM | TK-10 91.2 µM | NCI-H460 78.9 µM | MCF7 62.4 µM | Malme-3M 17.8 µM | CAKI-1 > 100 µM | 786-0 36.7 µM | SK-OV-3 40 µM | MDA-N 36.3 µM | CCRF-CEM > 100 µM | UACC-62 35.6 µM | IGROV-1 > 100 µM

COc1cc2ccc1OCc1cccc(n1)COc1ccc(cc1OC)/C=N\c1ccc(cc1)/N=C\2
inactive: M14 > 100 µM | SNB-19 > 100 µM | EKVX > 100 µM | K562 > 100 µM | HOP-62 > 100 µM | SF-539 > 100 µM | A498 > 100 µM | HL-60 > 100 µM | HT-29 > 100 µM | TK-10 > 100 µM | NCI-H460 > 100 µM | MCF7 > 100 µM | Malme-3M > 100 µM | CAKI-1 > 100 µM | 786-0 > 100 µM | SK-OV-3 > 100 µM | MDA-N > 100 µM | CCRF-CEM > 100 µM | UACC-62 > 100 µM | IGROV-1 > 100 µM
